This note sets out measurements from US7485634B2, “Azepinoindole and pyridoindole derivatives as pharmaceutical agents” (Exelixis, Inc., priority 2002, dated 2009).

Test [1] concerns the target T1, full length human farnesoid X receptor (Homo sapiens, UniProt Q96RI1).
T1 construct: CMX-farnesoid X receptor (full length human farnesoid X receptor); expressed in transfected cells; host or cells: CV-1 African Green Monkey Kidney cells
T1 sequence (Q96RI1 1-472 isoform Q96RI1-2): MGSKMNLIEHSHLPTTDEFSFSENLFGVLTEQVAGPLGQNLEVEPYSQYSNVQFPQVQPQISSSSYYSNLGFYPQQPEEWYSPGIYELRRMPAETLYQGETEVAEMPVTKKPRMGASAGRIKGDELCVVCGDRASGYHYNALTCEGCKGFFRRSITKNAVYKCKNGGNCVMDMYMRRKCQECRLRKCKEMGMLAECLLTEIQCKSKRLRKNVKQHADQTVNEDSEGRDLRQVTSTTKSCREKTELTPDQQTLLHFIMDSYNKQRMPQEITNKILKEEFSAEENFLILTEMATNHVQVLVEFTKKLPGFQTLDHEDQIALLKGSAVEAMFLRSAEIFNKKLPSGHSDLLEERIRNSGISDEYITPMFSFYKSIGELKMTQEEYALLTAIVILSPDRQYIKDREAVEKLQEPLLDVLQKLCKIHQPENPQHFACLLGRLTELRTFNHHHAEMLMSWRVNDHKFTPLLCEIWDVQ
T1 sequence (P19793 1-462 partner): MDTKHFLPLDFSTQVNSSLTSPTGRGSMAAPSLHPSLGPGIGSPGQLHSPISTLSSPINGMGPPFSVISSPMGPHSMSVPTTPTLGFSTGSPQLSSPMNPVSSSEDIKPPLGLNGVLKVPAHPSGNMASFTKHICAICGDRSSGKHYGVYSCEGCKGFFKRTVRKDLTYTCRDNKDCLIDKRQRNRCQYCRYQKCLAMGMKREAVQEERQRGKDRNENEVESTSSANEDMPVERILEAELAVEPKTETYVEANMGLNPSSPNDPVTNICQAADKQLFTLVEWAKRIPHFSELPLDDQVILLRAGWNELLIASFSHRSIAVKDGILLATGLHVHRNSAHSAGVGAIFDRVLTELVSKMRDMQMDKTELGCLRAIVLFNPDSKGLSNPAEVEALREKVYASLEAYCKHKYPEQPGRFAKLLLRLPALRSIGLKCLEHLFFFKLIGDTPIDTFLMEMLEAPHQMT
The test is described as follows: farnesoid X receptor/ECREx7 co-transfection assay (luciferase reporter, CV-1 cells). The format is cell-based. Conditions: read-out: agonist activity EC50. As to the method:
The basic co-transfection protocol for measuring the farnesoid X receptor activity is as follows. CV-1 African Green Monkey Kidney cells were plated 24 hours before transfection to achieve approximately 70-80 percent confluency. Cells were transfected with the following expression vectors, CMX-farnesoid X receptor (full length human farnesoid X receptor), CMX-RXRα (full length human RXR), Luc12 (ECREx7-Tk-Luciferase) luciferase reporter gene construct. (See WO 00/76523, Venkateswaran et al., (2000) J. Biol. Chem. 275 14700-14707). A CMX-β-Galactosidase expression vector was used as a transfection control. The transfection reagent used was DOTAP (Boehringer Mannheim). Cells were incubated with the DOTAP/DNA mixture for 5 hours after which the cells were harvested and plated onto either 96 well or 384 well plates containing the appropriate concentration of test compound. The assay was allowed to continue for an additional 18-20 hours, after which the cells were lysed, with lysis buffer (1% triton X 100, 10% glycerol, 5 mM Dithiothreitol, 1 mM EGTA, 25 mM Tricine, pH 7.8) and the luciferase activity measured in the presence of Luciferase assay buffer (0.73 mM ATP, 22.3 mM Tricine, 0.11 mM EGTA, 0.55 mM Luciferin, 0.15 mM Coenzyme A, 0.5 mM HEPES, 10 mM Magnesium sulphate) on a standard luminomter plate reader (PE Biosystems, NorthStar Reader), using recommended operating instructions and conditions.
Both the farnesoid X receptor/ECREx7 co-transfection assay (Example 76) and the TR-FRET assay (Example 75) can be used to establish the EC50/IC50 values for potency and percent activity or inhibition for efficacy. Efficacy defines the activity of a compound relative to a high control (chenodeoxycholic acid, CDCA) or a low control (DMSO/vehicle). The dose response curves are generated from an 8 point curve with concentrations differing by ½ LOG units. Each point represents the average of 4 wells of data from a 384 well plate. The curve for the data is generated by using the equation: Y=Bottom+(Top−Bottom)/(1+10^((LogEC50−X)*HillSlope))
The EC50/IC50 is therefore defined as the concentration at which an agonist or antagonist elicits a response that is half way between the Top (maximum) and Bottom (baseline) values. The EC50/IC50 values represented are the averages of at least 3 independent experiments. The determination of the relative efficacy or % control for an agonist is by comparison to the maximum response achieved by chenodeoxycholic acid that is measured individually in each dose response experiment.
For the antagonist assay, CDCA is added to each well of a 384 well plate to elicit a response. The % inhibition for each antagonist is therefore a measurement of the inhibition of the activity of CDCA.

The subject of the next test is normal mice. The test is described as follows: In vivo plasma lipid profile, normal mice, one week of daily oral dosing. On the set-up: species or system mouse. As to the method: To compare the effects of compounds on plasma lipid profiles, including but not limited to cholesterol and triglycerides, animals were dosed with compound for one week and plasma lipid levels monitored throughout the study. Male C57BL/6 mice (n=8) were dosed daily by oral gavage with vehicle or compound. Plasma samples were taken on day −1 (in order to group animals), day 1, 3, and 7. Samples were collected three hours after the daily dose. On day 7 of the study, following plasma collection, animals were euthanized and tissues, such as liver and intestinal mucosa were collected and snap frozen for further analysis. Plasma was analyzed for lipid parameters, such as total cholesterol, HDL cholesterol and triglyceride levels. RNA was extracted from frozen tissues for later analysis by quantitative real time PCR for regulation of key target genes. To identify specificity of target gene regulation by the farnesoid X receptor, knockout mice and C57BL/6 wild-type controls maybe used in this same protocol.

Test [2] concerns low density lipoprotein receptor deficient mice (LDLR^−/−). The test is described as follows: In vivo model of hyperlipidemia and atherosclerosis: LDLR−/− mice consuming a western diet. On the set-up: species or system mouse.
The next test has as its system db/db mouse. The test is described as follows: In vivo model of diabetes and dyslipidemia: db/db mouse. Conditions: once daily 10 mg/kg for one week.
The next test deals with T2, farnesoid X receptor (Homo sapiens, UniProt Q96RI1).
T2 construct: fused on or other part: GST fused in frame to the N-terminus of the LBD (TR-FRET assay only); Nothing is fused on in the co-transfection assay
T2 sequence (Q96RI1 244-471 isoform Q96RI1-2 limits assumed): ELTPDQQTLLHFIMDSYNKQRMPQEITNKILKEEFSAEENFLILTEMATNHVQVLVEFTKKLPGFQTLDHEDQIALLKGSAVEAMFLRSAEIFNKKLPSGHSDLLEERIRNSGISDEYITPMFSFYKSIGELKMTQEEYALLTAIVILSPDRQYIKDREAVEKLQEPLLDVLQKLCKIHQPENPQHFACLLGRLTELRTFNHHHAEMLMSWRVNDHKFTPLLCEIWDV
The test is described as follows: one or more of the in vitro assays described herein (TR-FRET assay, Example 75; co-transfection assay, Example 76).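 Also: TR-FRET assay or luciferase reporter in CV-1 monkey kidney cells co-transfected with human FXR and RXRα, dose-response over 8 half-log concentrations, CDCA added in antagonist mode.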 Conditions: relative to maximum response of chenodeoxycholic acid (CDCA); read-out: efficacy. A general note: TR-FRET usually uses a lanthanide donor and a delayed reading to cut background.

[3] abbreviates: 10 mg/kg daily dosing for one week.
Setting [4] is: one week of daily dosing at 10 mg/kg.

A value given as a limit tells only on which side of the number the result lay.

Regarding `CCCOC(=O)C1=CN(C(=O)c2ccc(F)cc2)C(C)Cc2c1[nH]c1cc(F)ccc21` (centres unmarked) [n-propyl 3(4-fluorobenzoyl)-2-methyl-8-fluoro-1,2,3,6-tetrahydroazepino[4,5-b]indole-5-carboxylate], the EC50 (usually the concentration at which the effect is half-maximal) in test [1] is under 1000 nM.
Consider `CCCOC(=O)C1=CN(C(=O)c2ccc(F)cc2)C(C)Cc2c1[nH]c1ccccc21` (centres unmarked) [n-propyl 3(4-fluorobenzoyl)-2-methyl-1,2,3,6-tetrahydroazepino[4,5-b]indole-5-carboxylate], for which the EC50 in test [1] is under 1000 nM.
On to `CCOC(=O)C1=CN(C(=O)c2cccc(F)c2)CCc2c1[nH]c1ccccc21` [3-(3-fluorobenzoyl)-1,2,3,6-tetrahydroazepino[4,5-b]indole-5-carboxylic acid ethyl ester], for which the EC50 in test [1] is under 1000 nM.
Turning to `CCOC(=O)C1=CN(C(=O)c2ccc(F)c(F)c2)CC(C)(C)c2c1[nH]c1ccccc21` [ethyl 3-(3,4-difluorobenzoyl)-1,1-dimethyl-1,2,3,6-tetrahydroazepino[4,5-b]indole-5-carboxylate], in the test on normal mice (setting [3]), the “plasma HDL-cholesterol levels” value is on record as “without affecting”, the “plasma non-HDL cholesterol” value is on record as “significant lowering” and the plasma total cholesterol result is recorded as “decreased”. The plasma triglyceride levels result in the test on normal mice (once daily dosing at 0.1-10 mg/kg for one week) was “significantly reduced”. In addition, in test [2] (setting [4]), the “decrease of plasma total cholesterol levels” value is on record as about 50%, the non-HDL cholesterol entry was “decrease” and the “reduction of plasma triglycerides” value was “greater than 50%”. In addition, in test [2] (treatment with compound), the “plasma free fatty acid concentration” value is on record as “attenuated” and the plasma glucose concentration entry is recorded as “attenuated”. In the test on db/db mouse, the “plasma free fatty acid levels” value is “declines”, the “reduction in non-HDL cholesterol” value is on record as “approximately 50%” and the “reduction in plasma triglycerides” value is given as “approximately 50%”. For the same molecule, the Emax on farnesoid X receptor was over 100%.
`O=C(NC1CCC1)C1=CN(C(=O)c2ccc(F)cc2)CCc2c1[nH]c1ccccc21` [3-(4-fluorobenzoyl)-1,2,3,6-tetrahydroazepino[4,5-b]indole-5-carboxylic acid cyclobutylamide]: the EC50 in test [1] was under 1000 nM.
